Holding throughout (assay): KINOMEscan competition binding
Common to all, as to details: compound 10.0 µM

Test [1] has as its target ACVR1B (human) (UniProt P36896).
In test [2] the target is STK25 (human) (UniProt O00506).
The target in test [3] is MLTK (human) (UniProt Q9NYL2).
The target in test [4] is FLT4 (human) (UniProt P35916).
Test [5] has as its target PAK6 (human) (UniProt Q9NQU5).
The target of test [6] is ROS1 (human) (UniProt P08922).
Test [7] addresses BRSK1 (human) (UniProt Q8TDC3).
In test [8] the target is IRAK3 (human) (UniProt Q9Y616).
Test [9] deals with CHEK2 (human) (UniProt O96017).
Test [10] has as its target STK38L (human) (UniProt Q9Y2H1).
Test [11] has as its target PTK2 (human) (UniProt Q05397).
The target of test [12] is STK3 (human) (UniProt Q13188).
The target of test [13] is PRKD2 (human) (UniProt Q9BZL6).
Test [14] relates to RET (human), P07949 [V804M].
Test [15] addresses EPHA8 (human) (UniProt P29322).
Test [16] concerns the target MAP3K9 (human) (UniProt P80192).
In test [17] the target is MST1R (human) (UniProt Q04912).
The target of test [18] is PRKG2 (human) (UniProt Q13237).
The target in test [19] is FYN (human) (UniProt P06241).
Test [20] has as its target NTRK2 (human) (UniProt Q16620).
Test [21] concerns the target PDPK1 (human) (UniProt O15530).
The target of test [22] is AKT1 (human) (UniProt P31749).
For test [23], the target named is CDC2L2 (human) (UniProt Q9UQ88).
For test [24], the target named is PTK6 (human) (UniProt Q13882).
In test [25] the target is HCK (human) (UniProt P08631).
Test [26] deals with EPHA2 (human) (UniProt P29317).
Test [27] concerns the target EPHB3 (human) (UniProt P54753).
For test [28], the target named is PIK3CD (human) (UniProt O00329).
In test [29] the target is TESK1 (human) (UniProt Q15569).
Test [30] addresses MAPK11 (human) (UniProt Q15759).
Test [31] addresses MYLK2 (human) (UniProt Q9H1R3).
The test system of test [32] is ABL1 (human), P00519 [M351T].
Test [33] addresses STK32C (human) (UniProt Q86UX6).
Test [34] deals with SRMS (human) (UniProt Q9H3Y6).
In test [35] the target is RPS6KA4 KD1 (human) (UniProt O75676).
Test [36] addresses FGR (human) (UniProt P09769).
Test [37] has as its target MAPK14 (human) (UniProt Q16539).
The target of test [38] is INSRR (human) (UniProt P14616).
Test [39] deals with BLK (human) (UniProt P51451).
Test [40] concerns the target BMPR2 (human) (UniProt Q13873).
The target of test [41] is DCLK1 (human) (UniProt O15075).
For test [42], the target named is PLK3 (human) (UniProt Q9H4B4).
For test [43], the target named is STK35 (human) (UniProt Q8TDR2).

Sequence of MLTK (human) (Q9NYL2 whole entry, looked up): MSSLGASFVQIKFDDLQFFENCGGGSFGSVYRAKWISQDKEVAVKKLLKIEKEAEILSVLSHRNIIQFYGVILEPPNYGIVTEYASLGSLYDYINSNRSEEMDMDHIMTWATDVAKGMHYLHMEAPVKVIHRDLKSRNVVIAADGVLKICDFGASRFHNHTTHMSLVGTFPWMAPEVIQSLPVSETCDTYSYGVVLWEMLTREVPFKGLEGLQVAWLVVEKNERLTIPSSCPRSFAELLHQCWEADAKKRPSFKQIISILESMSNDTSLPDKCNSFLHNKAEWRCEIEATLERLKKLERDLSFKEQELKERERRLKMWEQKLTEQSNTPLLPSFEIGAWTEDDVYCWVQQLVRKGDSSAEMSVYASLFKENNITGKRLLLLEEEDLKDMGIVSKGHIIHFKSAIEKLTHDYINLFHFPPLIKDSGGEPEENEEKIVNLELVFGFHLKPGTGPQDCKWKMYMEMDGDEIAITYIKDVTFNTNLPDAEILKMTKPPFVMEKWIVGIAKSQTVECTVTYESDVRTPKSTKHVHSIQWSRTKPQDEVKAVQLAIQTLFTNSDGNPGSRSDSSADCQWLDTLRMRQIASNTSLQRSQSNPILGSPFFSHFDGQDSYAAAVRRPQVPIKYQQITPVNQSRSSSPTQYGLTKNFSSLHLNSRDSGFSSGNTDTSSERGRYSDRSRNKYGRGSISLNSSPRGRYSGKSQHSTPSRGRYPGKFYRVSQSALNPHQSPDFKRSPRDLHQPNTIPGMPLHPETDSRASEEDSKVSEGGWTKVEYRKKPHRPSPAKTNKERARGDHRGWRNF
Sequence of STK25 (human) (O00506 whole entry, looked up): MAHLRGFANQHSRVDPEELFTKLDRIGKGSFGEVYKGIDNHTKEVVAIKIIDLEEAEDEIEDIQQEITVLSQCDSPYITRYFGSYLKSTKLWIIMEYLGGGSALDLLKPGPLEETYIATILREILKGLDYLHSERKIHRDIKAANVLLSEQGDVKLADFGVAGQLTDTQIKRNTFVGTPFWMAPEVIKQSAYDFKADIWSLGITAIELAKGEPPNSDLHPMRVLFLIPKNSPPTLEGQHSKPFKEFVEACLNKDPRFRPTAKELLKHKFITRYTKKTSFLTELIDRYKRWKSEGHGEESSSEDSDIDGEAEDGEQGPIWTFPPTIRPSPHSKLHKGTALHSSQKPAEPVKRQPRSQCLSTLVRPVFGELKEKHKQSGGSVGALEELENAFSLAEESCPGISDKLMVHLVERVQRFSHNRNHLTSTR
Sequence of ACVR1B (human) (P36896 whole entry, looked up): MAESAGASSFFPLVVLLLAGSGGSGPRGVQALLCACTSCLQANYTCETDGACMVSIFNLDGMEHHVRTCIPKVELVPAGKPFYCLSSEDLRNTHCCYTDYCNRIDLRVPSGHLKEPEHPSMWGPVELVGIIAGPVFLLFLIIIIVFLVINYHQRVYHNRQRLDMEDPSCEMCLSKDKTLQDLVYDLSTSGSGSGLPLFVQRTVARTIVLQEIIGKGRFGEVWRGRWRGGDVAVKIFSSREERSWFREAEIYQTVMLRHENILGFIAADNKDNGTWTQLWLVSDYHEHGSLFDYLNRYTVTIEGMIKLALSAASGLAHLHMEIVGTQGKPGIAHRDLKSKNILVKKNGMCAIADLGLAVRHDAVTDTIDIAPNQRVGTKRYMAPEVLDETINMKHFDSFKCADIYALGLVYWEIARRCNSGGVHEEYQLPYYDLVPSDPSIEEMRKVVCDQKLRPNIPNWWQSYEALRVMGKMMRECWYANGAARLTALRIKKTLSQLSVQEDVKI
Sequence of STK3 (human) (Q13188 whole entry, looked up): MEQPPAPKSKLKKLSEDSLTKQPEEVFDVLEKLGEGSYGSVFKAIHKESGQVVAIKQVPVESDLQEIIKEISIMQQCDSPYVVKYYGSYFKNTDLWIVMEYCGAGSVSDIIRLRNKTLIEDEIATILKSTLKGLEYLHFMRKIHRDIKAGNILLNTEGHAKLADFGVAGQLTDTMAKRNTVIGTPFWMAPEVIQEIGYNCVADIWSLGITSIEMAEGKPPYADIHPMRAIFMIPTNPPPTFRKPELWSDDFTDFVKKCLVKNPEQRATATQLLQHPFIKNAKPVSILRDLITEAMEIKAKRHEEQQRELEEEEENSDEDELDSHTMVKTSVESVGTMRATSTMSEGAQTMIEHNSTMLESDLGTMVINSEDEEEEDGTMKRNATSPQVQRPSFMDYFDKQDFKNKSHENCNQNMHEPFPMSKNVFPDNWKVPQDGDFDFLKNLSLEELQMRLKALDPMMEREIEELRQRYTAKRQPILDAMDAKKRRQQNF
Sequence of PRKD2 (human) (Q9BZL6 whole entry, looked up): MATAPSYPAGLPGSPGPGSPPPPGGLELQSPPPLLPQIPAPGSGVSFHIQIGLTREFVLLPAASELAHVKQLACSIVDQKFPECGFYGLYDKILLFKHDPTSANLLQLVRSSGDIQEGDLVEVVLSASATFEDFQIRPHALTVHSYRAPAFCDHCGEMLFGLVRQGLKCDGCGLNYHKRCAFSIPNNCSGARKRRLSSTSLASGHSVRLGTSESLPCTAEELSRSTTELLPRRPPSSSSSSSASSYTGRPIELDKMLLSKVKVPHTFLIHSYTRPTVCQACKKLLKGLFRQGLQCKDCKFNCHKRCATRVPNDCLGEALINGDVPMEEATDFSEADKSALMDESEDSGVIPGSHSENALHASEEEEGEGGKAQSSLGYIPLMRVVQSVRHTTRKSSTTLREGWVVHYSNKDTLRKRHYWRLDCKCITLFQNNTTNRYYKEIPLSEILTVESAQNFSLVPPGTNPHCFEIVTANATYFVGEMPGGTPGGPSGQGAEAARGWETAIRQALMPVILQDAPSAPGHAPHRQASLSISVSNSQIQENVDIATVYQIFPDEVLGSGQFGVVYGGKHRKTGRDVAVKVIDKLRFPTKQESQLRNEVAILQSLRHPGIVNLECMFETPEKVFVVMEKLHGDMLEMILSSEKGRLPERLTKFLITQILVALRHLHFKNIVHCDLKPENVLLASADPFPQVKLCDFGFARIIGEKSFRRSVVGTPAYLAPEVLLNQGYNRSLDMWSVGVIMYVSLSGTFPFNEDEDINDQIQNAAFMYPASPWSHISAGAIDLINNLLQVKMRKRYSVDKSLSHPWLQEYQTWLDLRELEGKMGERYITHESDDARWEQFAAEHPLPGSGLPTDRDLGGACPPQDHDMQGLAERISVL
Sequence of MYLK2 (human) (Q9H1R3 whole entry, looked up): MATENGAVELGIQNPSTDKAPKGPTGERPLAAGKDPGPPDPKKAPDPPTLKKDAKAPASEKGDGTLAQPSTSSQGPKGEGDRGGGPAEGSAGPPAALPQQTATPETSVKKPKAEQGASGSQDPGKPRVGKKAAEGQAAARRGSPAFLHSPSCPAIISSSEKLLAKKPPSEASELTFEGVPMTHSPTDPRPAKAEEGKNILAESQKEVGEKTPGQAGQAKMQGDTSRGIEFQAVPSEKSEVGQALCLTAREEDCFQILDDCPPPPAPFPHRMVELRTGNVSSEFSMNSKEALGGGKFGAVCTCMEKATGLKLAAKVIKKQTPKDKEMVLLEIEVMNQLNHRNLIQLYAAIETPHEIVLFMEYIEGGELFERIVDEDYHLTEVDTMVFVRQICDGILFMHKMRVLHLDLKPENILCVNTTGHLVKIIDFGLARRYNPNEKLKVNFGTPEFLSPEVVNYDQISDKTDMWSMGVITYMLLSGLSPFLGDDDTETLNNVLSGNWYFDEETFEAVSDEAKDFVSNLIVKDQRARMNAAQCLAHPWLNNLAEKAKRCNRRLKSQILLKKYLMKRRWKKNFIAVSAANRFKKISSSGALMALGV
Sequence of PAK6 (human) (Q9NQU5 whole entry, looked up): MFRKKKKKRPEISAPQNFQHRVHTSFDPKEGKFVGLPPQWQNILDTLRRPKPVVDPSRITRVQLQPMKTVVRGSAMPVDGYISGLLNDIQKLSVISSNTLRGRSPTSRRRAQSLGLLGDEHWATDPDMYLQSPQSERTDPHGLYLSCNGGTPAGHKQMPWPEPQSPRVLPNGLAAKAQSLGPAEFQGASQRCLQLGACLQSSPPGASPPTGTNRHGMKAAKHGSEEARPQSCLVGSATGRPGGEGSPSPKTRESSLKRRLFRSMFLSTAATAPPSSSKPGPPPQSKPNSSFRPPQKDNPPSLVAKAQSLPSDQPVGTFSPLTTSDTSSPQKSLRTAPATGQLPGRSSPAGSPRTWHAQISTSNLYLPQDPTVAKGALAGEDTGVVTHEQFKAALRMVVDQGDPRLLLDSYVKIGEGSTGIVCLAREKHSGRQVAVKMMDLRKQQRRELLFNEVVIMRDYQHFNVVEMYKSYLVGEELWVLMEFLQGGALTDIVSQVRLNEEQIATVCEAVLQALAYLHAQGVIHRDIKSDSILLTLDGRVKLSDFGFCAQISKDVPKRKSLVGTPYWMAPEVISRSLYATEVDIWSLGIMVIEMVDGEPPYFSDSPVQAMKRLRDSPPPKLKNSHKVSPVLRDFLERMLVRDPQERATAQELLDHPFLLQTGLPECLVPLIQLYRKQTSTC
Sequence of PLK3 (human) (Q9H4B4 whole entry, looked up): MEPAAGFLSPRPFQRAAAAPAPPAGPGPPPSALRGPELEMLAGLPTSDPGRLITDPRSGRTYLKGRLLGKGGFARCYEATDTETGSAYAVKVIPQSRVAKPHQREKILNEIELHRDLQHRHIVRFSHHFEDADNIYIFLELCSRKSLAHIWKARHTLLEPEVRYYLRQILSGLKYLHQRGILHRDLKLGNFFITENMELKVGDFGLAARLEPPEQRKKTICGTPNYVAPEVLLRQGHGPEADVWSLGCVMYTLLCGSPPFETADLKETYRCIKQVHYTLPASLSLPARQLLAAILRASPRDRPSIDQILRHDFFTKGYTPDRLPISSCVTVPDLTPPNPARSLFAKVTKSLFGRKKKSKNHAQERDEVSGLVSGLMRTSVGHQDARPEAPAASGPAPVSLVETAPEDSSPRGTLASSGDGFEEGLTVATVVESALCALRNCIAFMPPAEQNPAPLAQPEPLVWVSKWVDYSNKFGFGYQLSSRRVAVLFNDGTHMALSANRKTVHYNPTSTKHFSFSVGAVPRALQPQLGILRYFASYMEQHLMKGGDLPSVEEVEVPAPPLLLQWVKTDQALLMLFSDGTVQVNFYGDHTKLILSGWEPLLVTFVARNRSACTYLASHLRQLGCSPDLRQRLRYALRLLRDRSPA

With `O=C1NC(=S)S/C1=C\c1ccc(-c2cncc3ccccc23)o1`, the kinase still bound, per cent of control in [1] stood at 32%; in test [2] it was 20%; in [3], 31%; in [4], 28%; in test [5] it was 29%; in test [6], 34%. Also, the kinase still bound, per cent of control was 28% in [7]; 7.9% in test [8]; 14% in test [9]; 29% in test [10]; 28% in [11].
For `CS(=O)(=O)Nc1ccc(-c2cc(/C=C3\SC(=N)NC3=O)c[nH]c2=O)cc1`, the kinase still bound, per cent of control in test [12] is 15%; in [13], 32%.
Take `CN1CCN(c2ccc(C(=O)Nc3ncc4c(n3)N(C)c3ccccc3C(=O)N4C)cc2)CC1`: the kinase still bound, per cent of control in test [1] stood at 100%; in [2], 100%; in [14], 100%; in test [15], 92%; in test [16], 100%; in test [17], 93%. The kinase still bound, per cent of control amounted to 90% in test [18]; 95% in [19]; 69% in test [20]; 100% in test [3]; 100% in test [21]; 100% in test [22]. Moreover, the kinase still bound, per cent of control in [4] was found to be 100%; in [23], 100%; in [24] it was 100%; in test [5], 100%; in test [12], 82%; in [25], 100%. Moreover, the kinase still bound, per cent of control in [26] was 100%; in test [27] it was 100%; in [28], 100%; in test [6] it was 100%; in [7] it was 87%; in [29], 91%. Besides, the kinase still bound, per cent of control in test [8] was 92%; in test [30], 100%; in test [31] it was 100%; in [32] it was 100%; in [33] it was 100%; in test [34], 96%. Also, the kinase still bound, per cent of control in test [9], in test [35], in test [36], in [37], in test [10] and in test [38] was 100% in each case. Moreover, the kinase still bound, per cent of control in test [13] was found to be 100%; in test [39], 100%; in [40] it was 100%; in test [41] it was 24%; in test [11], 100%; in [42] it was 100%. The compound further returned a kinase still bound, per cent of control in [43] of 100%.
For the compound `CS(=O)(=O)Nc1ccc(-c2ncc(/C=C3\SC(=N)NC3=O)s2)cc1`, the kinase still bound, per cent of control in test [4] was determined as 3.6%; in [32], 26%; in test [36], 26%.
In the case of `N=C1NC(=O)/C(=C/c2ccc(-c3ccc(C(N)=O)cc3O)o2)S1`, the kinase still bound, per cent of control came to 26% in [28] and 33% in test [34].
Turning to `Nc1cccc(-c2cc(/C=C3\SC(=O)NC3=O)c[nH]c2=O)c1`, the kinase still bound, per cent of control in [40] was 29%.
Turning to `CS(=O)(=O)Nc1ccc(-c2cncc(/C=C3\SC(=N)NC3=O)c2)cc1`, the kinase still bound, per cent of control in test [1] amounted to 29%; in test [3], 7.6%; in test [4], 28%; in test [12] it was 17%; in [43], 30%.
On to `N=C1NC(=O)/C(=C/c2ccc(-c3cncc4ccccc34)o2)S1`, for which the kinase still bound, per cent of control stood at 18% in test [2]; 16% in [14]; 28% in [16]; 23% in test [3]; 14% in test [5]; 25% in test [12]. The kinase still bound, per cent of control in test [7] is 6.6%; in test [8], 11%; in test [31] it was 12%; in [9], 33%; in [35] it was 15%; in test [13], 8.1%. In [42], this compound displayed a kinase still bound, per cent of control of 16%.
For `CN1C(=O)[C@H]2CCC[C@H]2N(C2CCCC2)c2nc(Nc3ccc(C(N)=O)cc3)ncc21`, the kinase still bound, per cent of control in test [31] was 15%; in test [40], 23%; in test [41] it was 5.8%; in [42] it was 4.7%.
With `N=C1NC(=O)/C(=C/c2c[nH]c(=O)c(-c3ccc(N4CCNCC4)nc3)c2)S1`, the kinase still bound, per cent of control in [13] worked out at 0.1%.

The values above are taken from the kinase profiling compilation of Christmann-Franck et al. (2016).
